Assay results from patent US20250339566A1, “INHIBITORS OF FIBROBLAST ACTIVATION PROTEIN” (UNIVERSITEIT ANTWERPEN, priority 2022, published 2025).

Experiments:
Type in all cases: biochemical
human FAP = target: T1, human FAP (Homo sapiens, UniProt Q12884); assay: FAP IC50 measurement (Z-Gly-Pro-AMC); details: Z-Gly-Pro-AMC 50 μM, pH 8, 15 min pre-incubation
T1 construct: the human secretion signal was replaced with the HoneyBee mellitin secretion signal; honeybee melittin secretion signal (replaces the native signal) (N); made in house; host or cells: Sf9 insect cells (baculovirus), purified from supernatant
T1 sequence (Q12884 26-760 limits assumed): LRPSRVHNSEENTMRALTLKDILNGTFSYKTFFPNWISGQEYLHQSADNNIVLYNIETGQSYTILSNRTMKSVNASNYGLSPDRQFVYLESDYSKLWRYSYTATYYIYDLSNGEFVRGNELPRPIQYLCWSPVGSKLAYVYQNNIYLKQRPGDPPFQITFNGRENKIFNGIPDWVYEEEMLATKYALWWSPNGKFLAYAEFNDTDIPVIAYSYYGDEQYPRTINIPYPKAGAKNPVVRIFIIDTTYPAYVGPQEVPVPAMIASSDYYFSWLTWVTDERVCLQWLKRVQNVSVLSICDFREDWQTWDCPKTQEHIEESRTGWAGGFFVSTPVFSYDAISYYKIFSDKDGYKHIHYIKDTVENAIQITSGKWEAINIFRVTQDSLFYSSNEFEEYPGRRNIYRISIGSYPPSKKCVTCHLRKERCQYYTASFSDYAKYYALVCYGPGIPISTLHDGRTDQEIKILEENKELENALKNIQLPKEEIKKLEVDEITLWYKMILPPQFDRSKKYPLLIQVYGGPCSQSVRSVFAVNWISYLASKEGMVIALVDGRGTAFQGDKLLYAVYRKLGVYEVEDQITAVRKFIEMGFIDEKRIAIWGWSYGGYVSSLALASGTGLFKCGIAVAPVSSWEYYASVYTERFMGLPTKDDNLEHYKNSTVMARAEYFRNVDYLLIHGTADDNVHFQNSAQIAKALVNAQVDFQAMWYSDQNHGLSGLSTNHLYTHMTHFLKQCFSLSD
From the text: (§1) Used Enzymes in these Assays: • A gateway-entry clone for human FAP was purchased from Dharmacon (Accession number DQ891423) and the human secretion signal was replaced with the HoneyBee mellitin secretion signal. For transfection and expression of FAP in Sf9 insect cells the C-terminal BaculoDirect kit from LifeTechnologies was used. The enzyme was purified from the supernatant of the insect cells using immobilized Ni-chelating chromatography (GE healthcare, Diegem, Belgium), followed by anion-exchange chromatography using a 1 mL HiTrap Q and size exclusion chromatography using the Superdex 200 column (GE healthcare, Diegem, Belgium). • Human recombinant PREP was expressed in BL21(DE3) cells and purified using immobilized Co-chelating chromatography (GE healthcare), followed by anion-exchange chromatography on a 1 ml Mono Q column (GE healthcare). • DPP4 was purified from human seminal plasma. • Gateway-entry clones for human DPP8 and DPP9 were purchased from Dharmacon (Accession numbers DQ891733 and DQ892325 respectively). For transfection and expression of DPP8 and DPP9 in Sf9 insect cells the N-terminal BaculoDirect kit from LifeTechnologies was used. The enzymes were purified using immobilized Ni-chelating chromatography (GE healthcare, Diegem, Belgium), followed by anion-exchange chromatography using a 1 mL Mono Q (GE healthcare, Diegem, Belgium). • Recombinant human DPP2 was purchased from R&D.
(§2) Eight concentrations of inhibitors/probe were tested. The final DMSO concentration was kept constant during the experiment to exclude any effects. Inhibitors were pre-incubated with the enzyme for 15 minutes at 37° C., afterwards the substrate was added and the velocities of AMC release were measured kinetically at λex=380 nm, λem=465 nm for at least 10 minutes at 37° C. […] Eight concentrations of inhibitors were tested. The final DMSO concentration in kept constant during the experiment to exclude any effects. Inhibitors were pre-incubated with the enzyme for 15 minutes at 37° C., afterwards the substrate was added and the velocities of AMC release were measured kinetically at λex=380 nm, λem=465 nm for at least 10 minutes at 37° C. […] At least eight different inhibitor concentrations were used. The final DMSO concentration is kept constant during the experiment to exclude any effects. Inhibitors were pre-incubated with the enzyme for 15 minutes at 37° C., afterwards the substrate was added and the velocities of pNA release were measured kinetically at 405 nm for at least 10 minutes at 37° C. Measurements were done on the Infinite 200 (Tecan Group Ltd.) and the Magellan software was used to process the data. • For DPP2: Initial velocity measurements were carried out. Lys-Ala-pNA was used as the substrate at a concentration of 1 mM at pH 5.5 (100 mM NaAc, 10 mM EDTA, 14 μg/mL aprotinin). Inhibitors were tested at one concentration, 5 μM, being the final concentration in the well. Inhibitors were pre-incubated with the enzyme for 15 minutes at 37° C., afterwards the substrate was added and the velocities of pNA release were measured kinetically at 405 nm for at least 10 minutes at 37° C. Measurements were done on the Infinite 200 (Tecan Group Ltd.) and the Magellan software was used to process the data.

human DPP8 = target: T2, human DPP8 (Homo sapiens, UniProt Q6V1X1); assay: DPP8 IC50 measurement (Ala-Pro-pNA); details: for IC50: Ala-Pro-pNA 300 μM, pH 7.4, read-out: DPP8 IC50; for Selectivity index DPP8: IC50(DPP8)/IC50(FAP)
T2 construct: made in house; host or cells: Sf9 insect cells (baculovirus)
From the text: as §1, §2

Human recombinant PREP = target: T3, Human recombinant PREP (Homo sapiens, UniProt P48147); assay: PREP IC50 measurement (N-succinyl-Gly-Pro-AMC); details: for Selectivity index PREP: IC50(PREP)/IC50(FAP); for IC50: N-succinyl-Gly-Pro-AMC 250 μM, pH 7.4
T3 construct: made in house; host or cells: E. coli BL21(DE3)
T3 sequence (P48147 1-710): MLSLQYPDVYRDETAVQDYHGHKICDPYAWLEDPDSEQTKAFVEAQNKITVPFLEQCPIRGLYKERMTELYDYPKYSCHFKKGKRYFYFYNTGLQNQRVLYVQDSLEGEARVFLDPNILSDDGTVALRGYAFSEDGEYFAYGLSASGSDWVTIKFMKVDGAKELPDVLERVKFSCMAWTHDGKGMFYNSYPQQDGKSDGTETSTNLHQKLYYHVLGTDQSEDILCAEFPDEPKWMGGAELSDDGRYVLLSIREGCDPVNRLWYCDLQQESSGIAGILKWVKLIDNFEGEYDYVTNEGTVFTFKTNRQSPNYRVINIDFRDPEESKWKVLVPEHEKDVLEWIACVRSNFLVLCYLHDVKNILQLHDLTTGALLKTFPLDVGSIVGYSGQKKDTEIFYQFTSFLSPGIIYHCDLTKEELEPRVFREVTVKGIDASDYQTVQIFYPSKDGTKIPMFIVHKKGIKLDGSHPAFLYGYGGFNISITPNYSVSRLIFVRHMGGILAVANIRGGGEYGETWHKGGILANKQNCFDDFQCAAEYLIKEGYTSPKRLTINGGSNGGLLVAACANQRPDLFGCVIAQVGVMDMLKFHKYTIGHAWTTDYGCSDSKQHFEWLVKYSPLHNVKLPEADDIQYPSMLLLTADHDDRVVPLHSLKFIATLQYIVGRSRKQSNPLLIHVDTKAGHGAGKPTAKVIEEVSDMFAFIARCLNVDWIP
From the text: as §1, §2

human DPP9 = target: T4, human DPP9 (Homo sapiens, UniProt Q86TI2); assay: DPP9 IC50 measurement (Ala-Pro-pNA); details: for IC50: Ala-Pro-pNA 150 μM, pH 7.4; for Selectivity index DPP9: IC50(DPP9)/IC50(FAP)
T4 construct: made in house; host or cells: Sf9 insect cells (baculovirus)
From the text: as §1, §2

DPP4 = target: T5, DPP4 (Homo sapiens, UniProt P27487); assay: DPP4 IC50 measurement (Ala-Pro-pNA); details: for IC50: Ala-Pro-pNA 25 μM, pH 7.4; for Selectivity index DPP4: IC50(DPP4)/IC50(FAP)
T5 construct: DPP4 was purified from human seminal plasma; from tissue; host or cells: human seminal plasma
From the text: as §1, §2

T2 sequence (Q6V1X1 whole entry): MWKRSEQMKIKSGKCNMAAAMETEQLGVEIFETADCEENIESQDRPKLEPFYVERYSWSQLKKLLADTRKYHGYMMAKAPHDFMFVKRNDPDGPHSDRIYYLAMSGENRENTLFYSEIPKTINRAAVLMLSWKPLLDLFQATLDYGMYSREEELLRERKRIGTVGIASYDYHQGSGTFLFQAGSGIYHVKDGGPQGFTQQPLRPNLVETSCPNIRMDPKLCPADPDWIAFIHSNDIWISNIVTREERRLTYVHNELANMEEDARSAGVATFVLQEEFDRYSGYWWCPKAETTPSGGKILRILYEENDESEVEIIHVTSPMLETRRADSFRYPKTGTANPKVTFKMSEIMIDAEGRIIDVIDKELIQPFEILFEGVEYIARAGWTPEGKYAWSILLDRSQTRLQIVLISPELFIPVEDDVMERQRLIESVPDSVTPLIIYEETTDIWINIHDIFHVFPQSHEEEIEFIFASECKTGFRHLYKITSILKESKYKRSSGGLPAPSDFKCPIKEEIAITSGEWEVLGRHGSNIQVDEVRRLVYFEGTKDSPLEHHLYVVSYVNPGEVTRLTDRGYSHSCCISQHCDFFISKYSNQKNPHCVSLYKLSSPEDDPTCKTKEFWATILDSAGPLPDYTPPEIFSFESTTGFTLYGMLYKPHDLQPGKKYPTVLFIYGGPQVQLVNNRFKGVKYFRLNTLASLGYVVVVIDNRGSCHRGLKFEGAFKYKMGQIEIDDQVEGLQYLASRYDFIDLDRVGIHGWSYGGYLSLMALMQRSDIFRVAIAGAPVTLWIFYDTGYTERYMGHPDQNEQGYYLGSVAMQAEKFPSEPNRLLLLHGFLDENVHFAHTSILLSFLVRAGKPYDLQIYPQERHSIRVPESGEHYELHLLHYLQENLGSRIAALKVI
T5 sequence (P27487 whole entry): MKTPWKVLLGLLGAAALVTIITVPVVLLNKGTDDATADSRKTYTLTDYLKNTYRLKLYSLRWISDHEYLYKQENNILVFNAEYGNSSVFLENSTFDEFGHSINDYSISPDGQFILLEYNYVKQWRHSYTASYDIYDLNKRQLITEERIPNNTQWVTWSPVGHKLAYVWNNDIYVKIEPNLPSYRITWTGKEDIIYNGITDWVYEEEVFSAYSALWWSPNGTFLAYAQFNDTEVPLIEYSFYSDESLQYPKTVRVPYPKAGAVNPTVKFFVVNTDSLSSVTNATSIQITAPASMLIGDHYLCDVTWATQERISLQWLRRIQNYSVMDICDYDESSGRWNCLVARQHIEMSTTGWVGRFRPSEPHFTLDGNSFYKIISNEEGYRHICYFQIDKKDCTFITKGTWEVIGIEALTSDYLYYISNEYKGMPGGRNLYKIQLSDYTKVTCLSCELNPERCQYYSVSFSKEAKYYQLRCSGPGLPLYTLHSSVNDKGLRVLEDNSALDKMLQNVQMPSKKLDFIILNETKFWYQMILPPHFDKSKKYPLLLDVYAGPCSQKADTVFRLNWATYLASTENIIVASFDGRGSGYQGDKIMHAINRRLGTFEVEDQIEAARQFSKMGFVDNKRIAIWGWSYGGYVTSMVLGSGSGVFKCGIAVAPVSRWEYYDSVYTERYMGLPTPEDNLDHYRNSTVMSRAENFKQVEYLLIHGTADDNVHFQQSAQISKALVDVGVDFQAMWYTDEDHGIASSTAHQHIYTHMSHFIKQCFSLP
T4 sequence (Q86TI2 whole entry): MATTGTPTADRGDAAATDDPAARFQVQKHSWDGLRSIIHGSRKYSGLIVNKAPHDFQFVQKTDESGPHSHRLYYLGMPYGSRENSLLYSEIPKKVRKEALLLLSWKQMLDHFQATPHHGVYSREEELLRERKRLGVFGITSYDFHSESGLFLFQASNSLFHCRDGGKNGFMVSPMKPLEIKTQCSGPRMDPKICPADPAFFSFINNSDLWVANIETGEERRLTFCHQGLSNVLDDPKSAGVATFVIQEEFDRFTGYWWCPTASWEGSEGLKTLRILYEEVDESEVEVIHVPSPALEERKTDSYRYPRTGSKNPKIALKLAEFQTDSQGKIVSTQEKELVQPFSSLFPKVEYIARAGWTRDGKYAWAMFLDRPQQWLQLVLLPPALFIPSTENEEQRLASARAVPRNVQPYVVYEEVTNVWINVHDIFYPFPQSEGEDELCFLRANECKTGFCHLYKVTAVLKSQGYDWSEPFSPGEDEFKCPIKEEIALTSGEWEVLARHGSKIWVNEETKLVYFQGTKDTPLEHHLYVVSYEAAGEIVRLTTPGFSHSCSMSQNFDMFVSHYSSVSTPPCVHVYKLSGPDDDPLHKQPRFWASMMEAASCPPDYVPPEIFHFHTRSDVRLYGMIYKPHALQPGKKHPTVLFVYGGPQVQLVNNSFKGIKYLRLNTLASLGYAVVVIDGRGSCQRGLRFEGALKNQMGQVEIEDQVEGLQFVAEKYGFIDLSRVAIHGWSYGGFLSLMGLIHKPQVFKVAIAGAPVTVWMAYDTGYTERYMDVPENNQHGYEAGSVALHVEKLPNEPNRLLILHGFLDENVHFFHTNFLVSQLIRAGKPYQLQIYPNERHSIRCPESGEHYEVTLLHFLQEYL

| IC50 (human FAP) | IC50 (human DPP8) | Selectivity index DPP8 (human DPP8) | Selectivity index PREP (Human recombinant PREP; 4-methylbenzenesulfonate) | Selectivity index PREP (Human recombinant PREP; listed as UAMC-0005086, 4-methylbenzenesulfonate) | IC50 (Human recombinant PREP) | IC50 (human DPP9) | Selectivity index DPP9 (human DPP9) | IC50 (DPP4) | Selectivity index DPP4 (DPP4) | Selectivity index PREP (Human recombinant PREP) | SMILES |
| --- | --- | --- | --- | --- | --- | --- | --- | --- | --- | --- | --- |
| 2.53 ± 0.13 nM | > 10000 nM | >4800 | 4853 | >4800 | > 10000 nM | > 10000 nM | >4800 | > 10000 nM | >4800 | – | C[N+](C)(CF)CCOc1ccc2nccc(C(=O)NCC(=O)N3CC(F)(F)C[C@H]3C#N)c2c1.Cc1ccc(S(=O)(=O)[O-])cc1 [Compound 4b, (S)-2-((4-((2-(2-cyano-4,4-difluoropyrrolidin-1-yl)-2-oxoethyl)carbamoyl)quinoline-6-yl)oxy)-N-(fluoromethyl)-N,N-dimethylethan-1-aminium 4-methylbenzenesulfonate] |
| 0.32 ± 0.02 nM | > 10000 nM | >31000 | – | – | > 10000 nM | > 10000 nM | >31000 | > 10000 nM | >31000 | >31000 | C[N+](C)(CF)CCCOc1ccc2nccc(C(=O)NCC(=O)N3CC(F)(F)C[C@H]3C#N)c2c1.Cc1ccc(S(=O)(=O)[O-])cc1 [Compound 4a, (S)-3-((4-((2-(2-cyano-4,4-difluoropyrrolidin-1-yl)-2-oxoethyl)carbamoyl)quinoline-6-yl)oxy)-N-(fluoromethyl)-N,N-dimethylpropan-1-aminium benzenesulfonate] |
| 0.57 ± 0.05 nM | > 1000 nM | >1700 | – | – | > 10000 nM | > 1000 nM | >1700 | > 1000 nM | >17000 | >17000 | C[N+]1(CCCOc2ccc3nccc(C(=O)NCC(=O)N4CC(F)(F)C[C@H]4C#N)c3c2)CCN(C(=O)c2ccc(B(O)O)cc2)CC1.Cc1ccc(S(=O)(=O)[O-])cc1 [Compound 12, (S)-4-(4-boronobenzoyl)-1-(3-((4-((2-(2-cyano-4,4-difluoropyrrolidin-1-yl)-2-oxoethyl)carbamoyl)quinolin-6-yl)oxy)propyl)-1-methylpiperazin-1-ium 4-methylbenzenesulfonate] |

| SMILES | IC50 (human FAP) | IC50 (human DPP8) | Selectivity index DPP8 (human DPP8) | Selectivity index PREP (Human recombinant PREP; 4-methylbenzenesulfonate) | Selectivity index PREP (Human recombinant PREP; listed as UAMC-0005086, 4-methylbenzenesulfonate) | IC50 (Human recombinant PREP) | IC50 (human DPP9) | Selectivity index DPP9 (human DPP9) | IC50 (DPP4) | Selectivity index DPP4 (DPP4) | Selectivity index PREP (Human recombinant PREP) |
| --- | --- | --- | --- | --- | --- | --- | --- | --- | --- | --- | --- |
| CC(C)(C)OC(=O)N1CC[N+](C)(CCCOc2ccc3nccc(C(=O)NCC(=O)N4CC(F)(F)C[C@H]4C#N)c3c2)CC1 [Compound 11, (S)-4-(tert-butoxycarbonyl)-1-(3-((4-((2-(2-cyano-4,4-difluoropyrrolidin-1-yl)-2-oxoethyl)carbamoyl)quinolin-6-yl)oxy)propyl)-1-methylpiperazin-1-ium iodide] | 0.44 ± 0.05 nM | > 1000 nM | >2200 | – | – | > 10000 nM | 620 ± 80 nM | >2200 | > 10000 nM | >22000 | >22000 |
